Measurements from patent publication US20240090546A1, “COMPOSITIONS COMPRISING AND METHODS OF USING 1,3-PROPANEDIOL, TO IMPROVE SWEETNESS AND/OR REDUCE BITTERNESS OF SWEETENERS” (Primient Covation LLC, priority 2022, published 2024).

Tests used:
Format in all cases: in vivo, human
[1] = tested on: Six panelists experienced in the evaluation of food and beverages; test: Tasting of sweeteners with and without Zemea USP-FCC propanediol; conditions: sweetener with 5 ppm Zemea USP-FCC Propanediol versus without
From the text: Six panelists experienced in the evaluation of food and beverages tasted sweeteners and commercial beverages with and without the addition of Zemea USP-FCC propanediol. The six panelists tasted the products and discussed their perceptions of the flavor. They indicated whether the test or control product in each pair was sweeter, less bitter, and/or less sour.

40 untrained panelists = test: Paired comparison test for bitterness, reduced sugar stevia sweetened orange juice
Procedure: Paired comparison tests for bitterness were conducted on 40 untrained panelists. The reduced sugar stevia sweetened orange juice was used as the control and was prepared with 0.0005% Zemea® USP-FCC (5 ppm) as the test variable. The products were served in 2-ounce soufflé cups labeled with 3-digit codes at refrigerated temperatures. The panelists were asked to identify the sample that was more bitter. Bottled water and unsalted crackers were available for panelists to clear their palates before and during testing.

panelists [2] = test: Absolute taste threshold of Zemea USP-FCC PDO in water (flash profile, blind tasting); conditions: at 690 ppm (FEMA #4753 use limit for beverages)
From the text: (§1) • 1. Panelists: Recruit at least 5 and preferably 12 staff who has no allergy to the big 8 food allergens. • 2. Prototypes: • a. Freshly made to same age (<1 week if possible) • b. Serve all samples at same size (>1 oz for beverages), and at same temperature (70F for foods, 40F for beverages) • 3. Random coded (3-digit) and random ordered up to 5 samples • 4. Keep to less than 5 samples per panel session. Less than 4 panels/day. • 5. For each panelist, ship (under covid-19): • a. one set of 5 samples • b. one instruction (this page) ballot (attachment 1) and one example for how to fill in (attachment 2) • c. one bottled water (Aquafina or equivalent, no minerals added. Panelist to bring own under covid-19) • 6. […] Describe the panelists how to blind-taste same day upon receipt according to panelists instruction below. • 8. […] Ask each panelist to scan/send a picture of the filled-in ballot to panel leader. Panel leader will issue a “directional analysis” (1 day) as a minimum and may include PCA (3 days) leading to conclusions and recommendations.
(§2) Instruction for Flash Profiling Method panelists: • 1. […] Please taste this set mid-morning (9a-N) or mid-afternoon (2-4p) if possible • 3. Arrange the 5 samples in front of you in any order • 4. For the Flash Profiling Method ballot, fill in today's Date, your Name, and Sample (s) as “project xxx-Round x samples” • 5. […]

panelists [3] = test: Flash profile blind tasting of beverages and bitter substances with Zemea USP-FCC added; conditions: Zemea added at 5-940 ppm to the beverages and bitter substances of Table 1; blind tasting by N>6
From the text: as §1, §2

[4] = tested on: Six panelists experienced in the evaluation of food and beverages; test: Screening of Zemea USP-FCC at 5, 20 and 100 ppm in reduced sugar stevia sweetened orange juice; conditions: 5 ppm, compared with 20 and 100 ppm and control
From the text: Six panelists experienced in the evaluation of food and beverages screened Zemea® USP-FCC at 5, 20, and 100 ppm in a reduced sugar stevia sweetened orange juice. The reduced sugar stevia sweetened orange juice containing no Zemea® USP-FCC was used as the control.

How did the Effect [1] turn out when `O=C(CO)C(O)C(O)C(O)CO` (stereo not shown) [Allulose] was run?
The Effect was “Enhanced sweetness”.

`OC[C@@H](O)[C@@H](O)CO` [Erythritol] was tested. Which Effect [1] did it give?
Its Effect is “Enhanced sweetness”.

With `OC[C@H]1O[C@@](CO)(O[C@H]2O[C@H](CO)[C@@H](O)[C@H](O)[C@H]2O)[C@@H](O)[C@@H]1O` [Sucrose, sucrose] as the compound, how does the Effect [1] read?
The Effect was “Enhanced sweetness”.

With `O=C(CO)[C@@H](O)[C@@H](O)[C@H](O)CO` [Tagatose] as the compound, how does the Effect [1] read?
Its Effect is “Enhanced sweetness”.

What does the source list for `OCCCO` [Zemea® USP-FCC Propanediol, 1,3-propanediol]?
number of 40 untrained panelists who identified the sample as more bitter (40 untrained panelists; 5 ppm (0.0005%) in stevia-sweetened orange juice, control chosen by 26, one-tailed exact p-value 0.04): 14; bitterness versus control containing no Zemea USP-FCC (40 untrained panelists; 5 ppm added directly to reduced sugar orange juice with stevia, p-value 0.04, one-tailed): statistically less bitter; taste of Zemea USP-FCC PDO (panelists [2]): tasteless; bitterness of individual ingredients and beverages (panelists [3]): less bitter; liking of individual ingredients and beverages (panelists [3]): more liked; bitterness perception [4]: lowest bitterness perception
